The text below walks through data of patent publication US8445493B2, “Tetrasubstituted pyridazines hedgehog pathway antagonists” (Eli Lilly and Company, priority 2008, dated 2013).

This test deals with Gli1 transcript in Shh-stimulated Daoy cells. Nature of the test: Functional assay for measuring the inhibition of Gli1 in Daoy cells (bDNA assay). Type of test: cell-based. The note with it: Homo sapiens; Daoy cells stimulated with Shh conditioned media, 24 hours incubation with compound, Gli1 transcript by bDNA luminescence. Here is the method: Biological activity is determined using a functional assay in Daoy neuronal cancer cells and measures levels of Gli1 ribonucleic acid via a bDNA (branched deoxyribonucleic acid) assay system (Panomics, Inc., Fremont, Calif.). Gli was originally discovered in a Glioblastoma cell line and encodes a zinc finger protein that is activated by Shh signaling. The maximum response is obtained by inducing Gli1 transcription in the Daoy cells with conditioned medium (human embryonic kidney, HEK-293 cells stably expressing recombinant Shh) for 24 hours and then measuring the amount of stimulated Gli1 transcript. […]
The bDNA assay system utilizes the technology of branched-chain DNA to allow amplification of a target ribonucleic acid (transcript). […] The addition of a chemilumigenic substrate during the amplification step allows for detection using luminescence. […]
Daoy cells are grown to confluency in tissue culture T225-flasks in Daoy growth media containing Minimum Essential Medium (MEM) plus 10% Fetal Bovine Serum (FBS) with […] non-essential amino acids and 1 mM sodium pyruvate. The cells are removed from the T225-flasks using trypsin ethylenediaminetetraacetic acid (EDTA), centrifuged, resuspended in media, and then counted. […]

Counter-ions that a name gives are not always drawn.

By IC50 is commonly meant the midpoint of a concentration-inhibition curve. On to `Cc1c(-c2ccccc2)nnc(N2CCN(C(=O)NC3CCC(F)(F)CC3)[C@@H](C)C2)c1C` [Example 1, (S)—N-(4,4-Difluorocyclohexyl)-4-(4,5-dimethyl-6-phenylpyridazin-3-yl)-2-methylpiperazine-1-carboxamide hydrochloride], for which the IC50 is about 1.26 nM.
